These results are taken from article PMC9855970, “Cysteine Biosynthesis in Campylobacter jejuni: Substrate Specificity of CysM and the Dualism of Sulfide” (Biomolecules, 2022).

The target of this assay is T1, CysM (Cj0912) (Campylobacter jejuni, UniProt P71128).
T1 sequence (P71128 1-299): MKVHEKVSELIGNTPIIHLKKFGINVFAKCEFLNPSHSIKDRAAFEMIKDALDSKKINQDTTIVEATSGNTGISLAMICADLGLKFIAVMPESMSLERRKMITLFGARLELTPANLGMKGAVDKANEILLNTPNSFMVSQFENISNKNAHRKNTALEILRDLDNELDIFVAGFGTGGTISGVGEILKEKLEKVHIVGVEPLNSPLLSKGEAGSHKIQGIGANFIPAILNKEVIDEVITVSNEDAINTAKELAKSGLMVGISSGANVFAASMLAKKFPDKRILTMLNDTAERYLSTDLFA
The assay can be described thus: UV-Vis absorbance at […] nm of purified enzyme. It is filed as binding. The following applies: 100 mM Tris-HCl pH 7.4, 50 mM NaCl; co-purified, covalent internal Schiff base with lysine.

For `Cc1ncc(COP(=O)(O)O)c(C=O)c1O` [PLP, pyridoxal 5′-phosphate], the “UV-Vis absorbance at 412 nm of purified enzyme” value is listed as “Cj0912 purified with the PLP cofactor in situ”.
